# Measured values: patent publication US20130071854A1, “METHODS FOR THE IDENTIFICATION AND CHARACTERIZATION OF HDAC INTERACTING COMPOUNDS” (priority 2009, published 2013)
# Read-outs that look alike come from different tables or passages of the source.
# Legend:
# MIER1 = assay: Chemoproteomic binding profiling, K562 cell extract, SAHA/ITF2357 probe matrix (Kd app), ELSA (ELM-SANT) domain protein; design: species or system human; conditions: ELSA (ELM-SANT) domain proteins
# [1] = system: T1, MiDAC complex (HDAC1/2, DNTTIP1, CDYL, MIDEAS); assay: Chemoproteomic binding profiling, K562 cell extract, SAHA/ITF2357 probe matrix (Kd app); design: species or system human
# T1 construct: Kd^app MIDEAS; other: protein MIDEAS; MiDAC complex; Kd^app DNTTIP1; other: protein DNTTIP1
# NuRD complex = assay: as above; design: species or system human; conditions: NuRD complex
# Sin3 complex = assay: as above; design: species or system human
# [2] = target: T2, non-HDAC targets (e.g. BZW2, ISOC2, aldehyde dehydrogenases) (Homo sapiens, UniProt Q96AB3); assay: as above; conditions: protein ISOC2; selected HDACi off-targets
# T2 construct: endogenous in cells; host or cells: K562 whole cell extract
# T2 sequence (Q96AB3 1-205): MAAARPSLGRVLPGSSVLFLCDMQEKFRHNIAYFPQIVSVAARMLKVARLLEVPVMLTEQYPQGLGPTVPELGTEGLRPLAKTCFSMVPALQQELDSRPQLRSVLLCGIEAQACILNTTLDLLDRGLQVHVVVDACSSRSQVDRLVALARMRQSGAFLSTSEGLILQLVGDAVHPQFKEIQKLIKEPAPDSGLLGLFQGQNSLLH
# [3] = target: T3, non-HDAC targets (e.g. BZW2, ISOC2, aldehyde dehydrogenases) (Homo sapiens, UniProt O94788); assay: as above; conditions: protein ALDH1A2; selected HDACi off-targets
# T3 construct: endogenous in cells; host or cells: K562 whole cell extract
# T3 sequence (O94788 1-518): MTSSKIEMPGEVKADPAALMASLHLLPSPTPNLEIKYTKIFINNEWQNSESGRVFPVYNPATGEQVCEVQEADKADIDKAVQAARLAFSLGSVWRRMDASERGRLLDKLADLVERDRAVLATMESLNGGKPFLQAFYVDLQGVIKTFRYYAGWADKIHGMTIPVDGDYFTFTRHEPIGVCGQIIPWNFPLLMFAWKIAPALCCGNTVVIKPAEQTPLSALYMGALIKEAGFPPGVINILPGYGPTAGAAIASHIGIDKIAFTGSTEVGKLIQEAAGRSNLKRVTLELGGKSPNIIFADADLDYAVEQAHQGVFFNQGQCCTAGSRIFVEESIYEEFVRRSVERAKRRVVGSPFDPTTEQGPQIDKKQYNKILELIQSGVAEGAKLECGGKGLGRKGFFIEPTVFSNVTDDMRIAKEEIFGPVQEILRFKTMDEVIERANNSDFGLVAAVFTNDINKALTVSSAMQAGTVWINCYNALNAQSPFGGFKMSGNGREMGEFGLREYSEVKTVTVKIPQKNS
# [4] = target: T4, non-HDAC targets (e.g. BZW2, ISOC2, aldehyde dehydrogenases) (Homo sapiens, UniProt Q9Y6E2); assay: as above; conditions: protein BZW2; selected HDACi off-targets
# T4 construct: endogenous in cells; host or cells: K562 whole cell extract
# T4 sequence (Q9Y6E2 1-419): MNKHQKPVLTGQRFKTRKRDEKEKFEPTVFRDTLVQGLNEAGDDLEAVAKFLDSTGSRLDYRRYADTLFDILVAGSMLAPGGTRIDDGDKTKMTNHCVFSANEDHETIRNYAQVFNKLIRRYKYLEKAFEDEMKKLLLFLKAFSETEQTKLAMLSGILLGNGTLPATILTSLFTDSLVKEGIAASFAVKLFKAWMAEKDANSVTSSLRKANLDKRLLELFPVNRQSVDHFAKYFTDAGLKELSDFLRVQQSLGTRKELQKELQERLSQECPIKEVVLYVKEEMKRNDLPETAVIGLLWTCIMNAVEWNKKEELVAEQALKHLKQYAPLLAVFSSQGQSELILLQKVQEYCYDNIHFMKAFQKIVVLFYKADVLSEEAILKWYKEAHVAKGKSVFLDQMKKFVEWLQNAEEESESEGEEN
# [5] = target: T5, non-HDAC targets (e.g. BZW2, ISOC2, aldehyde dehydrogenases) (Homo sapiens, UniProt Q08209); assay: as above; conditions: protein PPP3CA; selected HDACi off-targets
# T5 construct: Kd^app PPP3CA; other: protein PPP3CA; selected HDACi off-targets
# [6] = target: T6, non-HDAC targets (e.g. BZW2, ISOC2, aldehyde dehydrogenases) (Homo sapiens, UniProt P16152); assay: as above; conditions: protein CBR1; selected HDACi off-targets
# T6 construct: Kd^app CBR1; other: protein CBR1; selected HDACi off-targets
# T6 sequence (P16152 1-277): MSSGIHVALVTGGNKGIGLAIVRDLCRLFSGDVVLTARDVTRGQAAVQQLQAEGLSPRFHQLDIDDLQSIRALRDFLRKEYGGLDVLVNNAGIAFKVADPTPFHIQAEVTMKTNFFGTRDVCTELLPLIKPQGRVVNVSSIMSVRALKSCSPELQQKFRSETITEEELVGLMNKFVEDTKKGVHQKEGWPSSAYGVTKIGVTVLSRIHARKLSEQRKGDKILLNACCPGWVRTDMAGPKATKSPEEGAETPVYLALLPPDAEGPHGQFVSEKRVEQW
# RERE = assay: Chemoproteomic binding profiling, K562 cell extract, SAHA/ITF2357 probe matrix (Kd app), ELSA (ELM-SANT) domain protein; design: species or system human; conditions: protein RERE; ELSA (ELM-SANT) domain proteins
# EHMT2 = assay: Chemoproteomic binding profiling, K562 cell extract, SAHA/ITF2357 probe matrix (Kd app), ELSA (ELM-SANT) domain proteins group; design: species or system human; conditions: protein EHMT2
# MIER3 = assay: Chemoproteomic binding profiling, K562 cell extract, SAHA/ITF2357 probe matrix (Kd app), ELSA (ELM-SANT) domain protein; design: species or system human; conditions: ELSA (ELM-SANT) domain proteins
# MIER2 = assay: as above; design: species or system human; conditions: ELSA (ELM-SANT) domain proteins
# CoREST complex = assay: Chemoproteomic binding profiling, K562 cell extract, SAHA/ITF2357 probe matrix (Kd app); design: species or system human; conditions: CoREST complex
# HDAC1 = target: T7, HDAC1 (Homo sapiens, UniProt Q13547); assay: as above
# T7 construct: used to probe endogenous HDACs in K562 whole cell extracts; endogenous in cells
# T7 sequence (Q13547 whole entry): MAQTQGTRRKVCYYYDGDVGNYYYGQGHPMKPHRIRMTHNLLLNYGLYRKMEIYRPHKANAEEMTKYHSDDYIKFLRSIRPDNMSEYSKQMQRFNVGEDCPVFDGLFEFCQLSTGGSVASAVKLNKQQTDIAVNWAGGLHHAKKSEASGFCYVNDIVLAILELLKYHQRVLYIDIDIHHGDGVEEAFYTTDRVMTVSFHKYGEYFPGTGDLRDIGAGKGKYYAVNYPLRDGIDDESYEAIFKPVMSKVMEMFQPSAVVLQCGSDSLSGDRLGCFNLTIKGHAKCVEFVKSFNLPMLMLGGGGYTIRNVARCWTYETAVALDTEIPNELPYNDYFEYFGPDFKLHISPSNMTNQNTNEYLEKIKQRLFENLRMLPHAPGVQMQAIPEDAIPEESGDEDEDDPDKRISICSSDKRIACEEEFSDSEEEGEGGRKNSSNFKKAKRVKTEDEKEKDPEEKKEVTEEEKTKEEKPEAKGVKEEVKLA
smiles,measurement,setting,value
Cn1cc(C(=O)Cc2ccccc2)cc1C=CC(=O)NO [MC-1293],Kd,MIER1,> 10 µM
same,Kd,"[1]; protein DNTTIP1, read-out: Kd^app DNTTIP1",> 10 µM
same,Kd,"[1]; protein MIDEAS, read-out: Kd^app MIDEAS",> 10 µM
same,Kd,"NuRD complex; protein CHD4, read-out: Kd^app CHD4",> 10 µM
same,Kd,"NuRD complex; protein GATAD2A, read-out: Kd^app GATAD2A",> 10 µM
same,Kd,"NuRD complex; protein GATAD2B, read-out: Kd^app GATAD2B",> 10 µM
same,Kd,"NuRD complex; protein MBD2, read-out: Kd^app MBD2",> 10 µM
same,Kd,"NuRD complex; protein MBD3, read-out: Kd^app MBD3",> 10 µM
same,Kd,"NuRD complex; protein MTA1, read-out: Kd^app MTA1",> 10 µM
same,Kd,"NuRD complex; protein MTA2, read-out: Kd^app MTA2",> 10 µM
same,Kd,"NuRD complex; protein MTA3, read-out: Kd^app MTA3",> 10 µM
same,Kd,"Sin3 complex; protein SAP30, read-out: Kd^app SAP30",164 µM
same,Kd,"Sin3 complex; protein SIN3A, read-out: Kd^app SIN3A",> 10 µM
same,Kd,"Sin3 complex; protein SIN3B, read-out: Kd^app SIN3B",> 10 µM
same,Kd,[2],5 µM
same,Kd,[3],> 10 µM
same,Kd,[4],4 µM
same,Kd,[5],40 µM
same,Kd,[6],19 µM
same,Kd,RERE,> 10 µM
same,Kd,EHMT2,> 10 µM
same,Kd,MIER3,209 µM
same,Kd,MIER2,> 10 µM
same,Kd,"CoREST complex; protein GSE1, read-out: Kd^app GSE1",> 10 µM
same,Kd,"CoREST complex; protein HMG20A, read-out: Kd^app HMG20A",> 10 µM
same,Kd,"CoREST complex; protein HMG20B, read-out: Kd^app HMG20B",> 10 µM
same,Kd,"CoREST complex; protein PHF21A, read-out: Kd^app PHF21A",> 10 µM
same,Kd,"CoREST complex; protein RCOR1, read-out: Kd^app RCOR1",> 10 µM
same,Kd,"CoREST complex; protein RCOR2, read-out: Kd^app RCOR2",> 10 µM
same,Kd,"CoREST complex; protein RCOR3, read-out: Kd^app RCOR3",> 10 µM
same,Kd,"CoREST complex; protein ZMYM2, read-out: Kd^app ZMYM2",> 10 µM
same,Kd,"CoREST complex; protein ZMYM3, read-out: Kd^app ZMYM3",> 10 µM
C/C=C1\NC(=O)[C@H]2CSSCC/C=C/[C@H](CC(=O)N[C@H](C(C)C)C(=O)N2)OC(=O)[C@H](C(C)C)NC1=O [romidepsin],Kd,HDAC1,0.01 µM
